Reference: US5885815A, “Candida isoleucyl-tRNA synthetase proteins, nucleic acids and strains comprising same” (priority 1996, dated 1999)

Experiments:
[1] = biological target: T1, Candida albicans isoleucyl-tRNA synthetase, N-terminal GST-fusion protein (GST-IleRS) encoded by pQB83CAIRS-1, produced in S. cerevisiae, SEQ ID NO:2 (Candida albicans, UniProt Q59RI1, S1065L/S390L); assay: Aminoacylation (charging) assay for Km determination, purified GST-IleRS fusion; assay type: biochemical; conditions: isoleucine varied; 1.09 nM active enzyme; crude yeast tRNA
T1 construct: thrombin-cleavable), pQB83CAIRS-1, expressed in S. cerevisiae QBY3; CTG codons 390 and 1065 read as Leu by host
Procedure: (§1) The purified recombinant GST-fusion protein and the product after thrombin cleavage of the GST-fusion protein were tested for their charging activities. Charging assays were based on the procedure of Shepard et al. (Proc. Natl. Acad. Sci. USA 89:9964-68 (1992)). Unless otherwise stated, a typical 50 μl reaction was carried out at 25° C. and contained 4 mM ATP, 20 μM of [^3 H]isoleucine, 90 μM crude tRNA from E. coli (Sigma) or brewer's yeast (Boehringer Mannheim), 10 μM KF, 50 mM HEPES, pH 7.5, 10 mM MgCl2, 10 mM DTT or β-mercaptoethanol and 30 mM NH4 Cl. Purified enzyme was diluted in 100 mM HEPES, pH 7.5, 20 mM DTT and 0.1 mg/ml BSA.
(§2) Reactions were started by the addition of enzyme to the reaction mixture preincubated at 25° C. At various time intervals, 10 μl of the reaction mix was spotted on 3MM Whatman filter circles which were then immersed in ice cold 5% TCA. After three washes in ice cold 5% TCA (at least 15 minutes each), the filters were rinsed once with cold ethanol, once with ether, and air dried. The radioactivity was quantitated by counting the filters in a table top scintillation counter (Packard) in the presence of scintillation fluid (Betafluor; National Diagnostics).
(§3) For determination of Km, various concentrations of one substrate (ATP, amino acid, or tRNA) were used while the other two substrates were kept at saturating concentrations. To test the effect of temperature, the reactions were incubated at 25°, 30°, 37° and 42° C. The Bradford assay was used for determination of total protein. The proportion of active enzyme was calculated by monitoring the formation of the amino acid-adenylate:enzyme complex using a nitrocellulose filter binding assay in the presence of various dilutions of enzyme preparation. A 50 μl reaction contained 1 mM ATP, 1 unit of pyrophosphatase, 50 mM Tris-HCl, pH 5.8, 10 mM MgCl2, 30 mM KCl, 20 mM DTT, 40 μM of radioactively labeled amino acid, and diluted enzyme. […]

CC[C@H](C)[C@H](N)C(=O)O = assay: as above; assay type: biochemical, Candida albicans; conditions: other: crude yeast tRNA, 2 to 32 μM [3H]isoleucine, 25° C., spread printed in b267: ±4.8 μM
Procedure: as §1, §2, §3

T1 sequence (Q59RI1 whole entry S390L/N691S/E755D/I1040V/S1065L, the tested form may be a part): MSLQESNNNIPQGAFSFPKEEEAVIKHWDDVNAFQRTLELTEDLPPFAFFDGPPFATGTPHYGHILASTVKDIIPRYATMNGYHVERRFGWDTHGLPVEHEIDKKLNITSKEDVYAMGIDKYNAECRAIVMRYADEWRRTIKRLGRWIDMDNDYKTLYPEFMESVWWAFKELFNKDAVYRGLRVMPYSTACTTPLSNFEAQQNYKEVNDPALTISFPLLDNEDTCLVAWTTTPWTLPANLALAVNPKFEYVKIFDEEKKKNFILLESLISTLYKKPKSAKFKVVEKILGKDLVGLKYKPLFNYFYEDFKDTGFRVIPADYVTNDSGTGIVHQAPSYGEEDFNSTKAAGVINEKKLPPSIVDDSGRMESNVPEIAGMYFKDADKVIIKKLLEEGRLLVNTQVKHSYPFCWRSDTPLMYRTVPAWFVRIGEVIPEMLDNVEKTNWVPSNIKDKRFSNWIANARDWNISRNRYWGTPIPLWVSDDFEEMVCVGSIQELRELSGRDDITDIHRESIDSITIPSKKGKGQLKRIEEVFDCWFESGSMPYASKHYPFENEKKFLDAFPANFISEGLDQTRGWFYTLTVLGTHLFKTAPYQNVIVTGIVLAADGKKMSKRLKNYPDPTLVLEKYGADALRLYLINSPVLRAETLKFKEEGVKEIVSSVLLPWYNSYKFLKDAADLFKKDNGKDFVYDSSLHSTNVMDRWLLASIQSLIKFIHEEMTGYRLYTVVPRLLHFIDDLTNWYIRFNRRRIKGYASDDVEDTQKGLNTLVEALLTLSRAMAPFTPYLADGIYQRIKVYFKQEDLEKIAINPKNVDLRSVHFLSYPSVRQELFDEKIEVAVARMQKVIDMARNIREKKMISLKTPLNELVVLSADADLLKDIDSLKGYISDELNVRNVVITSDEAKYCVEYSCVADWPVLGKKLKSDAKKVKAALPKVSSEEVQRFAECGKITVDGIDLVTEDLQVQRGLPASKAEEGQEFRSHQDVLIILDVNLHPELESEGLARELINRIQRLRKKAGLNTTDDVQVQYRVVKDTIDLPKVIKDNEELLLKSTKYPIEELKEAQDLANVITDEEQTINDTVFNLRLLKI

| Compound | Vmax [1] | kcat [1] | Km (CC[C@H](C)[C@H](N)C(=O)O) |
| --- | --- | --- | --- |
| CC[C@H](C)[C@H](N)C(=O)O [isoleucine] | 4 ± 0.5 nM/s | 3.7±0.5 per sec |  |
| Candida albicans isoleucyl-tRNA synthetase, N-terminal GST-fusion protein (GST-IleRS) encoded by pQB83CAIRS-1, produced in S. cerevisiae, SEQ ID NO:2 (Candida albicans SC5314; S1065L/S390L) |  |  | 17 µM |
